Measurements from patent US6338963B1, “Use of carbon monoxide dependent guanylyl cyclase modifiers to stimulate neuritogenesis” (NeoTherapeutics, Inc., priority 1994, dated 2002).

Tests used:
PC12 cells = test: Neuritogenesis in PC12 cells; format: cell-based, rat; conditions: NGF 40 ng/ml
Procedure: Much of the work performed in the characterization of the compounds of the present invention involved the use of PC12 cells. These cells are derived from a rat pheochromocytoma and when grown in the presence of NGF, extend neurites, cease cell division and assume many characteristics of sympathetic neurons. When cultured in the absence of nerve growth factor (NGF), few PC12 cells have neurites greater than one cell diameter. Addition of saturating concentrations of NGF for 48 hours stimulates neurite outgrowth in about 20-35% of the cells. Because they constitute a homogeneous population of neuronal-like cells, without contaminating astroglia type cells, it is possible to study the direct effects of the purine based compounds on neurite outgrowth in these cells.
Cells cultured in RPMI 1640 with 1.5% horse serum and 1.5% fetal bovine serum were re-plated onto poly-ornithine coated 24-well culture plates (2.5×10^4 cells per well). AIT-082 and NGF were added to the various cultures immediately upon plating. After 48 hours, medium was removed and the cells irnmediately fixed in 10% formalin and PBS for 10 minutes. Cells and neurites were counted within 2 days of fixation.
A neurite was defined as a process extending from the cell at least 1 cell body diameter in length and displaying a growth cone at its tip. For each treatment, 2 representative microscope fields were counted from each of 6 sister cultures receiving identical treatments. The total number of cells counted per well (approximately 100 cells) and the total number of cells containing neurites in each well were used to determine fraction of neurite-bearing cells. The mean values (±SEM) were then determined for each of the treatments. To facilitate comparison neurite outgrowth was expressed relative to the proportion of cells bearing neurites in the presence of NGF alone (NGF=100%). The effects of compounds with and without NGF were compared by analysis of variance (ANOVA) followed by Tukey's test for significance.
The results are shown in FIG. 3 where the curve represents different levels of AIT-082 plus saturating concentrations (40 ng/ml) NGF. The center horizontal line represents control values for cells cultured in the presence of 40 ng/ml NGF alone. Upper and lower horizontal lines are indicative of confidence limits of NGF alone as determined using standard statistical methods.

NGF mRNA = test: Northern/slot blot of neurotrophin mRNA from astrocytes: NGF; format: cell-based, NIH Swiss mice; design: key to NGF mRNA: The conditions which produced a detectable amount of each of the neurotrophin mRNAs are indicated by a “+”; a “++” indicating that at least twice the detectable amount was present; Those blots which were negative are indicated by a “−”; conditions: NGF 40 ng/ml, 24 hours
Procedure: (§1) Induction of neurotrophin mRNA was determined by northern blot analysis of astrocytes cultured with AIT-082, NGF, or both. The cells were harvested and RNA extracted at 24 hours after treatment.
(§2) More particularly, astrocytes from the cerebral cortex of NIH Swiss mice (Harlan) were isolated. Briefly, newborn pups (0-24 hours) were decapitated. Their brains were removed under aseptic conditions and were placed in modified Dulbecco's medium (DMEM) containing 20% heat-inactivated horse serum (Hyclone) (“complete medium”). The neopallium was then dissected from each cerebral hemisphere and minced into 1 mm cubes.
(§3) The astrocytes were then isolated by mechanical dissociation. The cubes were vortexed at maximum speed for one minute. The cell suspension was then passed first through 75 mm Nitex then through 10 mm Nitex. The resulting cell suspension was diluted in complete medium to a final concentration of one brain per 10 ml of complete medium. Ten milliliters of the diluted cell suspension was added to each 100 mm Falcon tissue culture plate (Fisher). After 3 days the medium was replaced with 10 ml fresh complete medium and subsequently was replaced twice weekly with DMEM containing 10% heat inactivated horse serum (“growth medium”). After two weeks in culture the astrocytes formed a confluent monolayer.
(§4) For RNA extraction, astrocytes were trypsinized. The astrocytes were then replated onto 100 mm PORN coated plates at a cell density of 10^6 cells per plate (10 ml growth medium). After 2 hrs PBS, guanosine (Guo), or GTP at 10 mM were added to the appropriate plates. Total RNA was harvested from 1.5×10^7 cells for each treatment, 4 and 24 hrs after treatment using TRIzol reagent and supplier protocol (GIBCO BRL/Life Technologies, Inc.). For slot blots, total RNA was bound to Hybond-N filters (Amersham/United States Biochemicals) as described in Transfer and Immobilization of Nucleic Acids and Proteins to S & S Solid Supports (S and S Protocols: Schleicher & Schuell, New Hampshire, USA). Northern blots were also performed using […] total RNA from each sample. These were electrophoresed in 1% agarose gels containing formaldehyde and blotted onto Hybond-N filters according to S and S protocols.
(§5) The blots were probed with ^32P-labeled cDNA (NGF, NT-3 and BDNF probes) or oligonucleotide probe (FGF-2) by hybridization in Piperazine-N,N′-bis-(2-ethanesulfonic acid) (PIPES) buffer (50 mM PIPES, pH 6.8; 50 mM NaH2PO4; 0.1 M NaCl; 5% SDS and 1 mM EDTA) overnight at 50° C. […] Various concentrations ([…] of total RNA), as determined by spectrophotometry, of each sample were blotted and probed so that quantification could be done after insuring a linear film response. Quantification was performed using MCID Image Analysis (St. Catherine's, Ontario, Canada). […]

FGF-2 mRNA = test: Northern/slot blot of neurotrophin mRNA from astrocytes: FGF-2; format: cell-based, NIH Swiss mice; design: key to FGF-2 mRNA: The conditions which produced a detectable amount of each of the neurotrophin mRNAs are indicated by a “+”; a “++” indicating that at least twice the detectable amount was present; Those blots which were negative are indicated by a “−”; conditions: NGF 40 ng/ml, 24 hours
Procedure: as §1, §2, §3, §4, §5

BDNF mRNA = test: Northern blot of neurotrophin mRNA from astrocytes: BDNF; format: cell-based, NIH Swiss mice; design: key: The conditions which produced a detectable amount of each of the neurotrophin mRNAs are indicated by a “+”; a “++” indicating that at least twice the detectable amount was present; Those blots which were negative are indicated by a “−”; conditions: NGF 40 ng/ml, 24 hours
Procedure: as §1, §2, §3
(§6) For RNA extraction, astrocytes were trypsinized. The astrocytes were then replated onto 100 mm PORN coated plates at a cell density of 10^6 cells per plate (10 ml growth medium). […]
as §5

NT-3 mRNA = test: Northern blot of neurotrophin mRNA from astrocytes: NT-3; format: cell-based, NIH Swiss mice; design: key: The conditions which produced a detectable amount of each of the neurotrophin mRNAs are indicated by a “+”; a “++” indicating that at least twice the detectable amount was present; Those blots which were negative are indicated by a “−”; conditions: NGF 40 ng/ml, 24 hours
Procedure: as §1, §2, §3, §6, §5

[1] = system: basal forebrain cholinergic neurons; conditions: mouse NGF 25 μg/ml, Barnett et al.; cited from earlier work

## NGF: nerve growth factor
PC12 cells; Methemoglobin 1 μM
  Proportion of cells bearing neurites, NGF alone: 0.2 ± 0.02
PC12 cells; Methylene Blue 5 μM
  Proportion of cells bearing neurites, NGF alone: 0.24 ± 0.03
PC12 cells; Zn Protoporphyrin IX 1 μM
  Proportion of cells bearing neurites, NGF alone: 0.22 ± 0.03
PC12 cells; no inhibitor, 48 hours
  Proportion of cells bearing neurites, NGF alone: 0.2 ± 0.02
NGF mRNA
  NGF mRNA: −
FGF-2 mRNA
  FGF-2 mRNA: −
BDNF mRNA
  BDNF mRNA: +
NT-3 mRNA
  NT-3 mRNA: −
[1]
  rescue of ChAT-positive cells following the FFT lesion: robust rescue effect
